# Experimental data published in patent US12599672B2, “KRAS proteolysis targeting chimeras” (PAQ Therapeutics Inc., priority 2023, dated 2026).
# Molecular target: T1, KRAS G12D (Homo sapiens, UniProt P01116, G12D)
# T1 construct: AsPc-1-KRAS (G12D)-HiBit-KI cell (Pharmaron); host or cells: AsPc-1-KRAS (G12D)-HiBit-KI cells (HiBiT knock-in at the endogenous KRAS locus)
# Assay: KRAS G12D HiBit assay
# Format: cell-based
# Settings: AsPc-1-KRAS (G12D)-HiBit-KI cell, compound treatment for 24 hours, absolute DC50; class symbols
# Procedure: Day 1. […] Allowed cells to reach approximately 80% confluence before splitting. Rinsed cultivated cells in T-75 flasks with 5 mL PBS (Solarbio, P1020-500). […] Inactivated trypsin by adding excessive serum containing medium. Harvested the cells from flask into cell culture medium and counted the cell number.
# Day 2. Test compounds were dissolved at 0.3 mM in DMSO (Solarbio, D8371) as stock solution. […] Performed 3-fold, 10-points dilution via transferring 15 μL compound into 30 μL DMSO by using TECAN liquid handler (TECAN, Freedom EVO200).
# Day 3. After compound treatment for 24 hours, removed the plate from incubators and equilibrated at room temperature for 15 minutes. Prepared the HiBit reagent (Promega, N3040) by mixing 10 mL of Nano-Glo®-HiBiT Lytic Buffer with 200 μL of Nano-Glo®-HiBiT Lytic Substrate and 100 μL of LgBiT Protein. Added 20 μL of HiBit reagent into each well of the cell plate and spun the plates at room temperature at 1,000 RPM for 1 minute.
# The inhibition activity was calculated using the following formula:
# (§1) [formula] where HC (high control) is obtained from cells treated with 0.1% DMSO only.
# T1 sequence (P01116 1-188 isoform P01116-2 G12D): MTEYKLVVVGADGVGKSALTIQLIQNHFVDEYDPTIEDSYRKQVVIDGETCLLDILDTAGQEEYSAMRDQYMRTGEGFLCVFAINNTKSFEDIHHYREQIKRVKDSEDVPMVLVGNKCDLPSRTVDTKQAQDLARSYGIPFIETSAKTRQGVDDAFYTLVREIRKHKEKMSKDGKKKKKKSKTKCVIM
row,SMILES,DC50
1,"C#Cc1c(F)ccc2cccc(-c3ncc4c(N5CCC[C@@](C)(O)C5)nc(OC[C@@]56CCCN5[C@H](COC(=O)NCCOCCOCCOc5ccc7c(c5)n(C)c(=O)n7C5CCC(=O)NC5=O)CC6)nc4c3F)c12 (stereo partly drawn) [Compound 108, ((3S,7aS)-7a-(((7-(8-ethynyl-7-fluoronaphthalen-1-yl)-8-fluoro-4-((R)-3-hydroxy-3-methylpiperidin-1-yl)pyrido[4,3-d]pyrimidin-2-yl)oxy)methyl)hexahydro-1H-pyrrolizin-3-yl)methyl (2-(2-(2-((1-(2,6-dioxopiperidin-3-yl)-3-methyl-2-oxo-2,3-dihydro-1H-benzo[d]imidazol-5-yl)oxy)ethoxy)ethoxy)ethyl) carbamate]",> 300 nM
2,"C#Cc1c(F)ccc2cc(O)cc(-c3ncc4c(N5CCC[C@@](C)(O)C5)nc(OC[C@@]56CCCN5[C@H](COC(=O)NCCOCCOc5ccc7c(c5)n(C)c(=O)n7C5CCC(=O)NC5=O)CC6)nc4c3F)c12 (stereo partly drawn) [Compound 114, ((3S,7aS)-7a-(((7-(8-Ethynyl-7-fluoro-3-hydroxynaphthalen-1-yl)-8-fluoro-4-((R)-3-hydro-xy-3-methylpiperidin-1-yl)pyrido[4,3-d]pyrimidin-2-yl)oxy)methyl)hexahydro-1H-pyrrolizin-3-yl)methyl (2-(2-((1-(2,6-dioxopiperidin-3-yl)-3-methyl-2-oxo-2,3-dihydro-1H-benzo[d]imidazol-5-yl)oxy)ethoxy)ethyl) carbamate]",> 300 nM
3,"CCc1c(F)ccc2cc(O)cc(-c3ncc4c(N5CCC[C@@](C)(O)C5)nc(OC[C@@]56CCCN5[C@H](COC(=O)NCCOCCOc5ccc7c(c5)n(C)c(=O)n7C5CCC(=O)NC5=O)CC6)nc4c3F)c12 (stereo partly drawn) [Compound 112, ((3S,7aS)-7a-(((7-(8-ethyl-7-fluoro-3-hydroxynaphthalen-1-yl)-8-fluoro-4-((R)-3-hydroxy-3-methylpiperidin-1-yl)pyrido[4,3-d]pyrimidin-2-yl)oxy)methyl)hexahydro-1H-pyrrolizin-3-yl)methyl (2-(2-((1-(2,6-dioxopiperidin-3-yl)-3-methyl-2-oxo-2,3-dihydro-1H-benzo[d]imidazol-5-yl)oxy)ethoxy)ethyl) carbamate]",> 300 nM
4,C#Cc1c(F)ccc2cccc(-c3ncc4c(N5CCC[C@@](C)(O)C5)nc(OCC5(CN6CCC(N7CCC(c8ccc9c(c8)n(C)c(=O)n9C8CCC(=O)NC8=O)CC7)CC6)CC5)nc4c3F)c12 (stereo partly shown) [Compound 39],> 300 nM
5,"C#Cc1c(F)ccc2cccc(-c3ncc4c(N5CCC[C@@](C)(O)C5)nc(OC[C@@]56CCCN5[C@H](COC(=O)NCCOCCOCCOCCOc5ccc7c(c5)n(C)c(=O)n7C5CCC(=O)NC5=O)CC6)nc4c3F)c12 (stereo partly drawn) [Compound 109, ((3S,7aS)-7a-(((7-(8-ethynyl-7-fluoronaphthalen-1-yl)-8-fluoro-4-((R)-3-hydroxy-3-methylpiperidin-1-yl)pyrido[4,3-d]pyrimidin-2-yl)oxy)methyl)hexahydro-1H-pyrrolizin-3-yl)methyl (2-(2-(2-(2-((1-(2,6-dioxopiperidin-3-yl)-3-methyl-2-oxo-2,3-dihydro-1H-benzo[d]imidazol-5-yl)oxy)ethoxy)ethoxy)ethoxy)ethyl) carbamate]",> 300 nM
6,C#Cc1c(F)ccc2cccc(-c3ncc4c(N5CCC[C@@](C)(O)C5)nc(OCC5(CN6CCC7(CC6)CC(N6CCN(c8ccc9c(c8)n(C)c(=O)n9C8CCC(=O)NC8=O)CC6)C7)CC5)nc4c3F)c12 (stereo partly shown) [Compound 41],> 300 nM
7,C#Cc1c(F)ccc2cccc(-c3ncc4c(N5CCC[C@@](C)(O)C5)nc(OCC5(CN6CCN(Cc7cccc8c7n(C)c(=O)n8C7CCC(=O)NC7=O)CC6)CC5)nc4c3F)c12 (stereo partly shown) [Compound 61],> 300 nM
8,"C#Cc1c(F)ccc2cc(O)cc(-c3ncc4c(N5CCC[C@@](C)(O)C5)nc(OC[C@@]56CCCN5[C@H](COC(=O)NCCOCCOCCOc5ccc7c(c5)n(C)c(=O)n7C5CCC(=O)NC5=O)CC6)nc4c3F)c12 (stereo partly drawn) [Compound 115, ((3S,7aS)-7a-(((7-(8-ethynyl-7-fluoro-3-hydroxynaphthalen-1-yl)-8-fluoro-4-((R)-3-hydroxy-3-methylpiperidin-1-yl)pyrido[4,3-d]pyrimidin-2-yl)oxy)methyl)hexahydro-1H-pyrrolizin-3-yl)methyl (2-(2-(2-((1-(2,6-dioxopiperidin-3-yl)-3-methyl-2-oxo-2,3-dihydro-1H-benzo[d]imidazol-5-yl)oxy)ethoxy)ethoxy)ethyl) carbamate]",> 300 nM
9,C#Cc1c(F)ccc2cccc(-c3ncc4c(N5CCC[C@@](C)(O)C5)nc(OCC5(CN6CCC(CN7CCN(c8ccc9c(c8)n(C)c(=O)n9C8CCC(=O)NC8=O)CC7)CC6)CC5)nc4c3F)c12 (stereo partly shown) [Compound 26],> 300 nM
10,C#Cc1c(F)ccc2cc(O)cc(-c3ncc4c(N5CCC[C@@](C)(O)C5)nc(OCC5(CN6CCC(N7CCC(c8cccc9c8n(C)c(=O)n9C8CCC(=O)NC8=O)CC7)CC6)CC5)nc4c3F)c12 (stereo partly shown) [Compound 85],< 100 nM
11,C#Cc1c(F)ccc2cccc(-c3ncc4c(N5CCC[C@@](C)(O)C5)nc(OC[C@@]56CCCN5[C@H](COC(=O)NCCOCCOc5ccc7c(c5)n(C)c(=O)n7C5CCC(=O)NC5=O)CC6)nc4c3F)c12 (stereo partly shown) [Compound 107],> 300 nM
12,C#Cc1c(F)ccc2cccc(-c3ncc4c(N5CCC[C@@](C)(O)C5)nc(OCC5(CN6CCC7(CCC(c8cccc9c8n(C)c(=O)n9C8CCC(=O)NC8=O)CC7)CC6)CC5)nc4c3F)c12 (stereo partly shown) [Compound 66],> 300 nM
13,C#Cc1c(F)ccc2cc(O)cc(-c3ncc4c(N5CCC[C@@](C)(O)C5)nc(OCC5(CN6CCC(N7CCC(c8ccc9c(c8)n(C)c(=O)n9C8CCC(=O)NC8=O)CC7)CC6)CC5)nc4c3F)c12 (stereo partly shown) [Compound 59],< 100 nM
14,C#Cc1c(F)ccc2cccc(-c3ncc4c(N5CCC[C@@](C)(O)C5)nc(OCC5(CN6CCC7(CC6)CC(N6CCC(c8ccc9c(c8)n(C)c(=O)n9C8CCC(=O)NC8=O)CC6)C7)CC5)nc4c3F)c12 (stereo partly shown) [Compound 36],> 300 nM
15,C#Cc1c(F)ccc2cc(O)cc(-c3ncc4c(N5CCC[C@@](C)(O)C5)nc(OCC5(CN6CCC7(CC6)CC(N6CCC(c8ccc9c(c8)n(C)c(=O)n9C8CCC(=O)NC8=O)CC6)C7)CC5)nc4c3F)c12 (stereo partly shown) [Compound 54],< 100 nM

# Same assay, conditions: AsPc-1-KRAS (G12D)-HiBit-KI cell, compound treatment for 24 hours, absolute DC50; numeric bounds given in place of class symbols
row,SMILES,DC50
1,C#Cc1c(F)ccc2cccc(-c3ncc4c(N5CCC[C@@](C)(O)C5)nc(OC5CCN(CC(=O)N6CCC7(CC6)CC(N6CCC(c8ccc9c(c8)n(C)c(=O)n9C8CCC(=O)NC8=O)CC6)C7)CC5)nc4c3F)c12 (stereo partly shown) [Compound 87],> 100 nM

# Same assay, conditions: AsPc-1-KRAS (G12D)-HiBit-KI cell, compound treatment for 24 hours; class symbols
row,SMILES,Dmax
1,"C#Cc1c(F)ccc2cccc(-c3ncc4c(N5CCC[C@@](C)(O)C5)nc(OC[C@@]56CCCN5[C@H](COC(=O)NCCOCCOCCOc5ccc7c(c5)n(C)c(=O)n7C5CCC(=O)NC5=O)CC6)nc4c3F)c12 (stereo partly drawn) [Compound 108, ((3S,7aS)-7a-(((7-(8-ethynyl-7-fluoronaphthalen-1-yl)-8-fluoro-4-((R)-3-hydroxy-3-methylpiperidin-1-yl)pyrido[4,3-d]pyrimidin-2-yl)oxy)methyl)hexahydro-1H-pyrrolizin-3-yl)methyl (2-(2-(2-((1-(2,6-dioxopiperidin-3-yl)-3-methyl-2-oxo-2,3-dihydro-1H-benzo[d]imidazol-5-yl)oxy)ethoxy)ethoxy)ethyl) carbamate]",15 to 50%
2,"C#Cc1c(F)ccc2cccc(-c3ncc4c(N5CCC[C@@](C)(O)C5)nc(OC[C@@]56CCCN5[C@H](COC(=O)NCCOCCOCCOCCOc5ccc7c(c5)n(C)c(=O)n7C5CCC(=O)NC5=O)CC6)nc4c3F)c12 (stereo partly drawn) [Compound 109, ((3S,7aS)-7a-(((7-(8-ethynyl-7-fluoronaphthalen-1-yl)-8-fluoro-4-((R)-3-hydroxy-3-methylpiperidin-1-yl)pyrido[4,3-d]pyrimidin-2-yl)oxy)methyl)hexahydro-1H-pyrrolizin-3-yl)methyl (2-(2-(2-(2-((1-(2,6-dioxopiperidin-3-yl)-3-methyl-2-oxo-2,3-dihydro-1H-benzo[d]imidazol-5-yl)oxy)ethoxy)ethoxy)ethoxy)ethyl) carbamate]",15 to 50%
3,C#Cc1c(F)ccc2cccc(-c3ncc4c(N5CCC[C@@](C)(O)C5)nc(OC[C@@]56CCCN5[C@H](COC(=O)NCCOCCOc5ccc7c(c5)n(C)c(=O)n7C5CCC(=O)NC5=O)CC6)nc4c3F)c12 (stereo partly shown) [Compound 107],15 to 50%

# Molecular target: T2, KRAS G12V (Homo sapiens, UniProt P01116, G12V)
# T2 construct: SW620-KRAS (G12V)-HiBit-KI cell (Pharmaron); host or cells: SW620-KRAS (G12V)-HiBit-KI cells (HiBiT knock-in at the endogenous KRAS locus)
# T2 sequence (P01116 1-188 isoform P01116-2 G12V): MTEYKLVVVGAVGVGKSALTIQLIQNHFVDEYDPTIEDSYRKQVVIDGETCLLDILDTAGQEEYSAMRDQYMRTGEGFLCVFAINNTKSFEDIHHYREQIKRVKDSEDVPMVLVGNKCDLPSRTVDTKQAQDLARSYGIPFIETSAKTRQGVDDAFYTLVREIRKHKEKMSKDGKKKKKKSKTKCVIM
# Assay: KRAS G12V HiBit assay
# Format: cell-based
# Settings: SW620-KRAS (G12V)-HiBit-KI cells, compound treatment for 24 hours, class symbols
# Procedure: Day 1. […] Rinsed cultivated cells in T-75 flasks with 5 mL PBS (Solarbio, P1020-500). […] Inactivated trypsin by adding excessive serum containing medium. Harvested the cells from flask into cell culture medium and counted the cell number.
# Day 2. Test compounds were dissolved at 0.3 mM in DMSO (Solarbio, D8371) as stock solution. […] Performed 3-fold, 10-points dilution via transferring 15 μL compound into 30 μL DMSO by using TECAN liquid handler (TECAN, Freedom EVO200). […] After compound treatment for 24 hours, the plate was removed from incubators and equilibrated at room temperature for 15 minutes. Prepare the HiBit reagent (Promega, N3040) by mixing 10 mL of Nano-Glo®-HiBiT Lytic Buffer with 200 μL of Nano-Glo®-HiBiT Lytic Substrate and 100 μL of LgBiT Protein. Added 20 μL of HiBit reagent into each well of the cell plate and spun the plates at room temperature at 1,000 RPM for 1 minute.
# The degradation activity was calculated using the following formula:
# as §1
row,SMILES,DC50
1,C[C@H]1CN(CCOCCOCCOc2ccc3c(c2)n(C)c(=O)n3C2CCC(=O)NC2=O)CCCN1c1nccc(-c2noc([C@]3(C)CCCc4sc(N)c(C#N)c43)n2)n1 (stereo partly shown) [Compound 217],> 100 nM
2,"CCc1c(F)ccc2cc(O)cc(-c3ncc4c(N5CCC[C@@](C)(O)C5)nc(OC[C@@]56CCCN5[C@H](COC(=O)N5CCC7(CC5)CC(N5CCC(c8ccc9c(c8)n(C)c(=O)n9C8CCC(=O)N(C)C8=O)CC5)C7)CC6)nc4c3F)c12 (stereo partly drawn) [Compound 491, ((3S,7aS)-7a-(((7-(8-ethyl-7-fluoro-3-hydroxynaphthalen-1-yl)-8-fluoro-4-((R)-3-hydroxy-3-methylpiperidin-1-yl)pyrido[4,3-d]pyrimidin-2-yl)oxy)methyl)hexahydro-1H-pyrrolizin-3-yl)methyl 2-(4-(3-methyl-1-(1-methyl-2,6-dioxopiperidin-3-yl)-2-oxo-2,3-dihydro-1H-benzo[d]imidazol-5-yl)piperidin-1-yl)-7-azaspiro[3.5]nonane-7-carboxylate]",> 100 nM
3,"C[C@H]1CN(CCOCCOCCOCCOc2ccc3c(c2)n(C)c(=O)n3C2CCC(=O)NC2=O)CCCN1c1nccc(-c2noc([C@@]3(C)CCCc4sc(N)c(C#N)c43)n2)n1 (stereo partly drawn) [Compound 200, (4S)-2-amino-4-(3-(2-((2S)-4-(2-(2-(2-(2-((1-(2,6-dioxopiperidin-3-yl)-3-methyl-2-oxo-2,3-dihydro-1H-benzo[d]imidazol-5-yl)oxy)ethoxy)ethoxy)ethoxy)ethyl)-2-methyl-1,4-diazepan-1-yl)pyrimidin-4-yl)-1,2,4-oxadiazol-5-yl)-4-methyl-4,5,6,7-tetrahydrobenzo[b]thiophene-3-carbonitrile]",> 100 nM
